Measurements taken from patent US5607944A, “Bicyclic heterocyclic compounds, pharmaceutical preparations containing these compounds and processes for their preparations” (Karl Thomae GmbH, priority 1993, dated 1997).
Structures can show the parent of a compound that is named as a salt.

Columns and labels:
human thrombocytes = assay: Inhibition of binding of ^3 H-BIBU 52 to human thrombocytes (competitive binding); details: human platelet-rich plasma diluted 1:10; 5 nM ^3 H-BIBU 52; 20 minutes, ambient temperature; read-out: Competitive binding of ^3 H-BIBU 52/test substance to human thrombocytes IC50
Protocol: 1. Inhibition of binding of ^3 H-BIBU 52 to human thrombocytes:
A suspension of human thrombocytes in plasma is incubated with ^3 H-BIBU 52 [=(3S,5S)-5-[(4'-amidino-4-biphenylyl)oxymethyl]-3-[(carboxyl)methyl]-2pyrrolidinone[3-^3 H-4-biphenylyl]] (see German Patent Application P 42 14 245.8 of the same applicant, dated 30.04.1992, internal reference: Case 5/1093-FL), which replaces the ^125 I fibrinogen ligand known from the literature, and various concentrations of the substance to be tested. The free and bound ligand are separated by centrifuging and quantified by scintillation counting. The inhibition of ^3 H-BIBU 52 binding by the test substance is determined from the measurements obtained.
In order to do this, donor blood is taken from an anticubital vein and anticoagulated with trisodium citrate (final concentration 13 mM). The blood is centrifuged for 10 minutes at 170×g and the supernatant platelet-rich plasma (PRP) is removed. The remaining blood is vigorously centrifuged once more in order to obtain plasma. The PRP is diluted 1:10 with autologous plasma. 750 μl are incubated with 50 μl of physiological saline solution, 100 μl of test substance solution, 50 μl of ^14 C-sucrose (3,700 Bq) and 50 μl of ^3 H-BIBU 52 (final concentration: 5 nM) at ambient temperature for 20 minutes. In order to measure the non-specific binding, 5 μl of BIBU 52 (final concentration: 30 μM) are used instead of the test substance. The samples are centrifuged for 20 seconds at 10,000× g and the supernatant is poured off. 100 μl thereof are measured in order to determine the free ligand. The pellet is dissolved in 500 μl of 0.2N NaOH, 450 μl are mixed with 2 ml of scintillator and 25 μl of 5N HCl and measured. The residual plasma remaining in the pellet is determined from the ^14 C-content and the bound ligand is determined from the ^3 H-measurement. After the non-specific binding has been deducted, the pellet activity is plotted against the concentration of the test substance and the concentration for a 50% inhibition of binding is determined.

platelet aggregation = assay: Antithrombotic activity: inhibition of collagen-induced platelet aggregation (Born and Cross) in platelet-rich plasma of healthy volunteers; assay type: cell-based; details: Homo sapiens, 10 minutes preincubation at 37° C.
Protocol: 2. Antithrombotic activity Method The thrombocyte aggregation is measured using the method of Born and Cross (J. Physiol. 170:397 (1964)) in platelet-rich plasma taken from healthy volunteers. To inhibit coagulation, the blood is mixed with 3.14% sodium citrate in a volume ratio of 1:10. Collagen-induced aggregation The pattern of the decrease in optical density of the platelet suspension is photometrically measured and recorded after the addition of the aggregation-triggering substance. The rate of aggregation is determined from the angle of inclination of the density curve. The point on the curve where there is maximum light transmittance is used to calculate the optical density. The concentration of collagen used is as small as possible but sufficient to produce an irreversible reaction curve. Standard commercial collagen produced by Hormonchemie of Munich is used. Before the addition of the collagen the plasma is incubated for 10 minutes at 37° C. with the substance. From the measurements obtained, the EC50 is determined graphically as the concentration giving a 50% change in the optical density in terms of the inhibition of aggregation.

mice = assay: Tolerance after intravenous administration of 30 mg/kg to three mice; assay type: in vivo; details: 30 mg/kg i.v., three mice in each case

Row | SMILES | IC50 (human thrombocytes) | EC50 (platelet aggregation) | death of animals after intravenous administration (mice)
1 | O=C(N[C@H]1CC[C@H](C(=O)O)CC1)c1ccc(-c2nc3cnccc3[nH]2)cc1 [3(8), 2-[4-[(trans-4-carboxy-cyclohexyl)-aminocarbonyl]-phenyl]-1H-imidazo[4,5-c]pyridine] | 2.1 µM | 4.2 µM | –
2 | CN1CCc2nc(C3CCN(C(=O)N[C@H]4CC[C@H](C(=O)O)CC4)CC3)sc2CC1 [3(12), 2-[1-[(trans-4-carboxy-cyclohexyl)-aminocarbonyl]-piperid-4-yl]-6-methyl-4,5,7,8-tetrahydro-thiazolo[4,5-d]azepine] | 2 µM | 2.9 µM | –
3 | O=C(N[C@H]1CC[C@H](C(=O)O)CC1)c1ccc(-c2nc3c(s2)CCNCC3)cc1.O=C(O)C(F)(F)F [4(1), 2-[4-[(trans-4-carboxy-cyclohexyl)-aminocarbonyl]-phenyl]-4,5,7,8-tetrahydro-6H-thiazolo[4,5-d]azepine-trifluoroacetate] | 0.075 µM | 0.68 µM | no animals died
4 | COC(=O)[C@H]1CC[C@H](NC(=O)N2CCC(c3nc4c(s3)CCNCC4)CC2)CC1 [7(1), 2-[1-[(trans-4-methoxycarbonyl-cyclohexyl)-aminocarbonyl]-piperid-4-yl]-4,5,7,8-tetrahydro-6H-thiazolo[4,5-d]azepine-hydrochloride] | 1.4 µM | 1.4 µM | –
5 | CC(C)OC(=O)[C@H]1CC[C@H](NC(=O)N2CCC(c3nc4c(s3)CCNCC4)CC2)CC1 [7(3), 2-[1-[(trans-4-isopropoxycarbonyl-cyclohexyl)-aminocarbonyl]-piperid-4-yl]-4,5,7,8-tetrahydro-6H-thiazolo[4,5-d]azepine-hydrochloride] | 1.5 µM | 1.3 µM | –
6 | O=C(N[C@H]1CC[C@H](C(=O)O)CC1)c1ccc(-c2nc3c(s2)CNCC3)cc1.O=C(O)C(F)(F)F [Example 4, 2-[4-[(trans-4-Carboxy-cyclohexyl)-aminocarbonyl]-phenyl]-4,5,6,7-tetrahydro-thiazolo[5,4-c]pyridine-trifluoroacetate] | 0.096 µM | 0.41 µM | no animals died
7 | CC(C)COC(=O)[C@H]1CC[C@H](NC(=O)N2CCC(c3nc4c(s3)CCNCC4)CC2)CC1 [Example 7, 2-[1-[(trans-4-Isobutyloxycarbonyl-cyclohexyl)-aminocarbonyl]-piperid-4-yl]-4,5,7,8-tetrahydro-6H-thiazolo[4,5-d]azepine-hydrochloride] | 1.6 µM | 0.66 µM | –

Further lines, with some results ahead:

Row | IC50 (human thrombocytes) | SMILES | EC50 (platelet aggregation) | death of animals after intravenous administration (mice)
8 | 0.21 µM | O=C(O)CC1CCN(C(=O)c2ccc(-c3nc4c(s3)CNCC4)cc2)CC1 [2(1), 2-[4-[4-(carboxymethyl)-piperidinocarbonyl]-phenyl]-4,5,6,7-tetrahydro-thiazolo[5,4-c]pyridine-hydrochloride] | 2.6 µM | –
9 | 0.45 µM | COC(=O)[C@H]1CC[C@H](NC(=O)c2ccc(-c3nc4c(s3)CNCC4)c(C)c2)CC1 [2(4), 2-[4-[(trans-4-methoxycarbonyl-cyclohexyl)-aminocarbonyl]-2-methyl-phenyl]-4,5,6,7-tetrahydro-thiazolo[5,4-c]pyridine-dihydrochloride] | 1.44 µM | –
10 | 0.031 µM | O=C(N[C@H]1CC[C@H](C(=O)O)CC1)N1CCC(c2nc3c(s2)CNCC3)CC1 [3(5), 2-[1-[(trans-4-carboxy-cyclohexyl)-aminocarbonyl]-piperid-4-yl]-4,5,6,7-tetrahydro-thiazolo[5,4-c]pyridine] | 0.1 µM | –
11 | 0.042 µM | O=C(N[C@H]1CC[C@H](C(=O)O)CC1)N1CCC(c2nc3c(s2)CCNCC3)CC1 [3(6), 2-[1-[(trans-4-carboxy-cyclohexyl)-aminocarbonyl]-piperid-4-yl]-4,5,7,8-tetrahydro-6H-thiazolo[4,5-d]azepine] | 0.1 µM | –
12 | 0.024 µM | Cc1cc(C(=O)N[C@H]2CC[C@H](C(=O)O)CC2)ccc1-c1nc2c(s1)CNCC2 [4(3), 2-[4-[(trans-4-carboxy-cyclohexyl)-aminocarbonyl]-2-methyl-phenyl]-4,5,6,7-tetrahydro-thiazolo[5,4-c]pyridine-trifluoraocetate] | 0.22 µM | –
13 | 0.12 µM | O=C(O)[C@H]1CC[C@H](NC(=O)[C@H]2CC[C@H](c3nc4c(s3)CCNCC4)CC2)CC1 [4(4), 2-[trans-4-[(trans-4-carboxy-cyclohexyl)-aminocarbonyl]-cyclohexyl]-4,5,7,8-tetrahydro-6H-thiazolo[4,5-d]azepine-trifluoroacetate] | 0.11 µM | –
14 | 1.3 µM | CCOC(=O)[C@H]1CC[C@H](NC(=O)N2CCC(c3nc4c(s3)CCNCC4)CC2)CC1 [7(2), 2-[1-[(trans-4-ethoxycarbonyl-cyclohexyl)-aminocarbonyl]-piperid-4-yl]-4,5,7,8-tetrahydro-6H-thiazolo[4,5-d]azepine-hydrochloride] | 2.6 µM | –
